Experimental data from US9062078B2, “Substituted 7-azabicyles and their use as orexin receptor modulators” (priority 2013, dated 2015).
Where two headings read alike, the source gives them in different places.

Columns and labels:
rat orexin 1 receptor = rat orexin 1 receptor (Rattus norvegicus, UniProt P56718); assay: Rat orexin 1 receptor radioligand binding (competitive, [3H]-SB674042, HEK293 cell preparations)
human orexin 2 receptor = human orexin 2 receptor (Homo sapiens (Human), UniProt O43614); assay: Human orexin 2 receptor radioligand binding (competitive, [3H]-EMPA, HEK293 cell preparations)
Sequence of human orexin 2 receptor (O43614 whole entry): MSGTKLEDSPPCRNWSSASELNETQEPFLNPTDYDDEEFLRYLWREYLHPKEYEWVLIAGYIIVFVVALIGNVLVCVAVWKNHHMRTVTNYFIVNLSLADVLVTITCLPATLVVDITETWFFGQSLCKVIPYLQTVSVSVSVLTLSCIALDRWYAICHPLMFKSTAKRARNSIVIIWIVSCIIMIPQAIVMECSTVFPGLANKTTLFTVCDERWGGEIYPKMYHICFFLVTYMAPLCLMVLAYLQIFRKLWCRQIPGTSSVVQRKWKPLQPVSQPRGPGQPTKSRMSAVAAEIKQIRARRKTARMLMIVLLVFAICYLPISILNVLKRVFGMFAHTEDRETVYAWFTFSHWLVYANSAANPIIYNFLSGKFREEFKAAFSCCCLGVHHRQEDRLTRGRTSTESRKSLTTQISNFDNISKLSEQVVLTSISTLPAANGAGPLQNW

[1] = rat orexin 1 receptor, [3H]-SB674042 competition binding, read-out: rOX1 Ki (nm)
[2] = human orexin 2 receptor, [3H]-EMPA competition binding, read-out: hOX2 Ki (nm)

Row | SMILES | Ki (rat orexin 1 receptor; [1]) | Ki (human orexin 2 receptor; [2]) | Ki (human orexin 2 receptor; hOX2 Ki (nm)) | Ki (rat orexin 1 receptor; rOX1 Ki (nm))
1 | Cc1ccc2ncc(C)n2c1C(=O)N1C2CCC1C(COc1ccccn1)C2 (racemic) [Example 76, (±)-(3,6-dimethylimidazo[1,2-a]pyridin-5-yl)(2-((pyridin-2-yloxy)methyl)-7-azabicyclo[2.2.1]heptan-7-yl)methanone] | > 10000 nM | > 10 µM | – | –
2 | Cn1cc(C(=O)N2C3CCC2C(COc2ccccn2)C3)c(-c2ccccc2)n1 (racemic) [Example 78, (±)-(1-methyl-3-phenyl-1H-pyrazol-4-yl)(2-((pyridin-2-yloxy)methyl)-7-azabicyclo[2.2.1]heptan-7-yl)methanone] | 418 nM | 3.1 µM | – | –
3 | Cc1ccn2c(C)cnc2c1C(=O)N1C2CCC1C(COc1ccccn1)C2 (racemic) [Example 79, (±)-((3,7-dimethylimidazo[1,2-a]pyridin-8-yl)(2-((pyridin-2-yloxy)methyl)-7-azabicyclo[2.2.1]heptan-7-yl)methanone] | 2400 nM | 8.5 µM | – | –
4 | Cc1ccn2ccnc2c1C(=O)N1C2CCC1C(COc1ccccn1)C2 (racemic) [Example 80, (±)-(7-methylimidazo[1,2-a]pyridin-8-yl)(2-((pyridin-2-yloxy)methyl)-7-azabicyclo[2.2.1]heptan-7-yl)methanone] | 1100 nM | > 10 µM | – | –
5 | Cn1ncc(-c2ccccc2)c1C(=O)N1C2CCC1C(COc1ccccn1)C2 (racemic) [Example 81, (±)-(1-methyl-4-phenyl-1H-pyrazol-5-yl)(2-((pyridin-2-yloxy)methyl)-7-azabicyclo[2.2.1]heptan-7-yl)methanone] | 916 nM | 2.9 µM | – | –
6 | Cn1ncc(C(=O)N2C3CCC2C(COc2ccccn2)C3)c1-c1ccccc1 (racemic) [Example 84, (±)-(1-methyl-5-phenyl-1H-pyrazol-4-yl)(−2-((pyridin-2-yloxy)methyl)-7-azabicyclo[2.2.1]heptan-7-yl)methanone] | 2600 nM | 9.7 µM | – | –
7 | Cc1ccc(N2CCN(C)CC2)c(C(=O)N2C3CCC2C(COc2ccccn2)C3)n1 (racemic) [Example 85, (±)-(6-methyl-3-(4-methylpiperazin-1-yl)pyridin-2-yl)(2-((pyridin-2-yloxy)methyl)-7-azabicyclo[2.2.1]heptan-7-yl)methanone] | > 10000 nM | > 10 µM | – | –
8 | Cc1ccc(N2CCNCC2)c(C(=O)N2C3CCC2C(COc2ccccn2)C3)n1 (racemic) [Example 86, (±)-(6-methyl-3-(piperazin-1-yl)pyridin-2-yl)(2-((pyridin-2-yloxy)methyl)-7-azabicyclo[2.2.1]heptan-7-yl)methanone] | > 10000 nM | – | > 10 µM | –
9 | Cc1ccc(N2CCOCC2)c(C(=O)N2[C@@H]3CC[C@H]2[C@H](COc2ccccn2)C3)n1 (racemic) [Example 87, (±)-(6-methyl-3-morpholinopyridin-2-yl)((1S,2R,4R)-2-((pyridin-2-yloxy)methyl)-7-azabicyclo[2.2.1]heptan-7-yl)methanone] | 4200 nM | – | > 10 µM | –
10 | Cc1ccc(-c2ncccc2C)c(C(=O)N2C3CCC2C(COc2ccccn2)C3)n1 (racemic) [Example 90, (±)-(3,6′-dimethyl-[2,3′-bipyridin]-2′-yl)(2-((pyridin-2-yloxy)methyl)-7-azabicyclo[2.2.1]heptan-7-yl)methanone] | 3000 nM | – | > 10 µM | –
11 | O=C(c1ncccc1-n1nccn1)N1C2CCC1C(COc1ccccn1)C2 (racemic) [Example 91, (±)-(3-(2H-1,2,3-triazol-2-yl)pyridin-2-yl)(2-((pyridin-2-yloxy)methyl)-7-azabicyclo[2.2.1]heptan-7-yl)methanone] | – | 3.3 µM | – | 624 nM
12 | Cc1ccc(-n2cccn2)c(C(=O)N2C3CCC2C(COc2ccccn2)C3)n1 (racemic) [Example 95, (±)-(6-methyl-3-(1H-pyrazol-1-yl)pyridin-2-yl)(2-((pyridin-2-yloxy)methyl)-7-azabicyclo[2.2.1]heptan-7-yl)methanone] | 247 nM | 3.7 µM | – | –
13 | Cc1ccc(-c2ncccc2C)c(C(=O)N2C3CCC2C(COc2ncc(F)cn2)C3)n1 (racemic) [Example 98, (±)-(3,6′-dimethyl-[2,3′-bipyridin]-2′-yl)(2-(((5-fluoropyrimidin-2-yl)oxy)methyl)-7-azabicyclo[2.2.1]heptan-7-yl)methanone] | > 10000 nM | > 10 µM | – | –
14 | Cc1cc(-c2ccc(C)nc2C(=O)N2C3CCC2C(COc2ncc(F)cn2)C3)on1 (racemic) [Example 99, (±)-(2-(((5-fluoropyrimidin-2-yl)oxy)methyl)-7-azabicyclo[2.2.1]heptan-7-yl)(6-methyl-3-(3-methylisoxazol-5-yl)pyridin-2-yl)methanone] | – | 2.9 µM | – | 1500 nM
15 | Cc1ccc(-c2ncco2)c(C(=O)N2C3CCC2C(COc2ncc(F)cn2)C3)n1 (racemic) [Example 100, (±)-(2-(((5-fluoropyrimidin-2-yl)oxy)methyl)-7-azabicyclo[2.2.1]heptan-7-yl)(6-methyl-3-(oxazol-2-yl)pyridin-2-yl)methanone] | 950 nM | 1.8 µM | – | –
16 | Cc1ccc(N2CCCC2)c(C(=O)N2C3CCC2C(COc2ncc(F)cn2)C3)n1 (racemic) [Example 101, (±)-(2-(((5-fluoropyrimidin-2-yl)oxy)methyl)-7-azabicyclo[2.2.1]heptan-7-yl)(6-methyl-3-(pyrrolidin-1-yl)pyridin-2-yl)methanone] | 650 nM | 1.2 µM | – | –
17 | Cc1cnn(-c2ccc(C)nc2C(=O)N2C3CCC2C(COc2ncc(F)cn2)C3)c1 (racemic) [Example 103, (±)-(2-(((5-fluoropyrimidin-2-yl)oxy)methyl)-7-azabicyclo[2.2.1]heptan-7-yl)(6-methyl-3-(4-methyl-1H-pyrazol-1-yl)pyridin-2-yl)methanone] | 1700 nM | – | 3.6 µM | –
18 | Cc1ccc(-n2cccn2)c(C(=O)N2C3CCC2C(COc2ncc(F)cn2)C3)n1 (racemic) [Example 104, (±)-(2-(((5-fluoropyrimidin-2-yl)oxy)methyl)-7-azabicyclo[2.2.1]heptan-7-yl)(6-methyl-3-(1H-pyrazol-1-yl)pyridin-2-yl)methanone] | – | – | 4.6 µM | 1100 nM
19 | COc1cccc(OC)c1C(=O)N1C2CCC1C(COc1ccc(F)cn1)C2 (racemic) [Example 106, (±)-(2,6-dimethoxyphenyl)(2-(((5-fluoropyridin-2-yl)oxy)methyl)-7-azabicyclo[2.2.1]heptan-7-yl)methanone] | 300 nM | 0.154 µM | – | –
20 | O=C(c1ncc(Cl)cc1-n1nccn1)N1C2CCC1C(COc1ccc(F)cn1)C2 (racemic) [Example 112, (±)-(5-chloro-3-(2H-1,2,3-triazol-2-yl)pyridin-2-yl)(2-(((5-fluoropyridin-2-yl)oxy)methyl)-7-azabicyclo[2.2.1]heptan-7-yl)methanone] | 480 nM | 1 µM | – | –
21 | COc1cnc(C(=O)N2C3CCC2C(COc2ccc(F)cn2)C3)c(-n2nccn2)c1 (racemic) [Example 113, (±)-(2-(((5-fluoropyridin-2-yl)oxy)methyl)-7-azabicyclo[2.2.1]heptan-7-yl)(5-methoxy-3-(2H-1,2,3-triazol-2-yl)pyridin-2-yl)methanone] | 3400 nM | 4.8 µM | – | –
22 | CCOc1ccc(C)nc1C(=O)N1C2CCC1C(COc1ccc(F)cn1)C2 (racemic) [Example 118, (±)-(3-ethoxy-6-methylpyridin-2-yl)(2-(((5-fluoropyridin-2-yl)oxy)methyl)-7-azabicyclo[2.2.1]heptan-7-yl)methanone] | 440 nM | 2.2 µM | – | –
23 | COc1ccc(C(=O)N2C3CCC2C(COc2ccc(F)cn2)C3)c(-n2nccn2)c1 (racemic) [Example 119, (±)-(2-(((5-fluoropyridin-2-yl)oxy)methyl)-7-azabicyclo[2.2.1]heptan-7-yl)(4-methoxy-2-(2H-1,2,3-triazol-2-yl)phenyl)methanone] | 500 nM | 1.3 µM | – | –
24 | Cc1cccc(-c2ncccn2)c1C(=O)N1C2CCC1C(COc1ccc(F)cn1)C2 (racemic) [Example 123, (±)-(2-(((5-fluoropyridin-2-yl)oxy)methyl)-7-azabicyclo[2.2.1]heptan-7-yl)(2-methyl-6-(pyrimidin-2-yl)phenyl)methanone] | – | 0.286 µM | – | 400 nM
25 | CCOc1nccc(C)c1C(=O)N1C2CCC1C(COc1ccccn1)C2 (racemic) [Example 155, (±)-(2-ethoxy-4-methylpyridin-3-yl)(2-((pyridin-2-yloxy)methyl)-7-azabicyclo[2.2.1]heptan-7-yl)methanone] | – | 3.6 µM | – | 1570 nM
26 | Cc1nc2sccn2c1C(=O)N1C2CCC1C(COc1ccccn1)C2 (racemic) [Example 156, (±)-(6-methylimidazo[2,1-b]thiazol-5-yl)(2-((pyridin-2-yloxy)methyl)-7-azabicyclo[2.2.1]heptan-7-yl)methanone] | > 10000 nM | > 10 µM | – | –
27 | CCOc1nc(C)ccc1C(=O)N1C2CCC1C(COc1ccccn1)C2 (racemic) [Example 158, (±)-(2-ethoxy-6-methylpyridin-3-yl)(2-((pyridin-2-yloxy)methyl)-7-azabicyclo[2.2.1]heptan-7-yl)methanone] | 2930 nM | 1.78 µM | – | –
28 | O=C(c1c(O)ccc2cccnc12)N1C2CCC1C(COc1ccccn1)C2 (racemic) [Example 159, (±)-(7-hydroxyquinolin-8-yl)(2-((pyridin-2-yloxy)methyl)-7-azabicyclo[2.2.1]heptan-7-yl)methanone] | 262 nM | 0.786 µM | – | –
29 | CCOc1ncc(-c2ccccc2)cc1C(=O)N1C2CCC1C(COc1ccccn1)C2 (racemic) [Example 160, (±)-(2-ethoxy-5-phenylpyridin-3-yl)(2-((pyridin-2-yloxy)methyl)-7-azabicyclo[2.2.1]heptan-7-yl)methanone] | 8700 nM | > 10 µM | – | –
30 | CCOc1nccc(Br)c1C(=O)N1C2CCC1C(COc1ccccn1)C2 (racemic) [Example 161, (±)-(4-bromo-2-ethoxypyridin-3-yl)(2-((pyridin-2-yloxy)methyl)-7-azabicyclo[2.2.1]heptan-7-yl)methanone] | 478 nM | – | 1.45 µM | –
